Measurements reported in patent US20040002482A1, “Androgen pharmaceutical composition and method for treating depression” (priority 2000, published 2004).
Read-outs that look alike come from different tables or passages of the source.

Assays:
body fat and muscle mass = assay: Depression trial: percent body fat and fat-free mass index (FFMI); format: in vivo, treatment-refractory depressed men; conditions: study completers; mean (SD); not significant vs placebo
Procedure: (§1) Next, the subjects were administered: 1) basic demographic questions; 2) the remainder of the SCID; 3) questions regarding history of previous antidepressant drug treatment; 4) the HAM-D; 5) the BDI; 6) the Clinical Global Impression Scale (CGI); 7) medical history questions; 8) physical examination, including vital signs, height, weight, and digital rectal examination of the prostate; 9) laboratory tests for standard chemistries, hematology, urinalysis, and HIV serology; 10) electrocardiogram (EKG); and 11) determination of body fat with calipers, together with calculation of fat-free mass index (FFMI), a measure of muscularity previously developed in our laboratory.
(§2) Weeks 2, 4, 6, and 8: Subjects were assessed at weeks 2, 4,6 and 8 for HAM-D, BDI, CGI, adverse events, and vital signs. Week 8, subjects received an additional determination of PSA and measurement of weight and body fat. The blind was then broken and the correct identity of treatment assignment determined.
For laboratory measures, including body fat and FFMI, the mean difference between endpoint and baseline measures were used, and then compared the treatment groups using the t-test. The correlation coefficients were calculated by using rank-transformed data (Spearman rank correlation). All statistical tests were two-sided with alpha=0.05.

body weight = conditions: patch delivering 150 ug/day; 12 weeks; cited from earlier work
[1] = cited from earlier work
impaired sexual function = conditions: cited from earlier work; for serum free testosterone concentration: mean ± SD
[2] = test system: major depressive disorder; assay: Eight-week randomized placebo-controlled depression trial of testosterone gel: HAM-D, CGI, BDI; format: in vivo, treatment-refractory depressed men
Procedure: Men age 30-65 years, presently taking an adequate dose of antidepressant medication (as defined by the manufacturer's published product information) for at least the last four weeks, but still complaining of depressive symptoms sufficient to meet DSM-IV criteria for current major depressive disorder. Subjects were initially screened. […] Subjects were then administered the depression module the Structured Clinical Interview for DSM-IV (SCID) to confirm the diagnosis of current major depressive disorder. Subjects were next administered the American Urological Association (AUA) Symptom Index for benign prostatic hyperplasia (B PH), subjects scoring higher than 14 on this index were excluded. Blood was then collected for total testosterone and PSA levels.
as §1
Qualifying subjects were then started on a one-week single-blind placebo washout with placebo gel. All subjects were asked to continue taking their existing antidepressant medications, together with any other medications that they were prescribed, at their present dose throughout the study.
Baseline (Week 0): Subjects were assessed for scores on the HAM-D, BDI, and CGI-Severity of Illness; adverse events; and vital signs. Results from the laboratory tests drawn at screen and from EKG readings were also reviewed. […] Drug and placebo were supplied in identical-appearing packets that contained either 2.5 g of AndroGel or a placebo gel.
Week 1: Subjects were assessed for scores on the HAM-D, BDI, and CGI (both Severity of Illness and Improvement as compared to Baseline); adverse events; and vital signs. Subjects provided blood for a total testosterone level, drawn at least four hours after the morning application of the gel.
as §2
Statistical Analysis: Baseline characteristics of each group were compared using Fisher's exact test for categorical variables and the […] for continuous variables. Two populations of patients were defined: (1) an intent-to-treat group of patients with at least one available efficacy measure, and (2) a completers group, defined as patients who completed the 8-week treatment period.
The primary protocol-defined analysis of efficacy was a repeated measures random regression analysis comparing the rate of change of scores on the HAM-D, BDI, and CGI-severity during the treatment period between groups, using methods described by Diggle et al. and Gibbons et al. A model was used for the mean of the outcome variable that included terms for treatment, time, and treatment-by-time interaction. Time as a continuous variable was modeled, with weeks ranging from 0 (Baseline) to 8 (after randomization). The measure of effect was the treatment-by-time interaction (or the difference in the rate of change per unit of time, or the difference in slope with respect to time) of the efficacy measure. […]

depression = conditions: cited from earlier work
[3] = 10 grams of 1% gel daily added to existing antidepressant, 8 weeks
[4] = Completers, Week 8 as endpoint, N = 10
[5] = Intent to Treat, last observation carried forward, N = 11

SMILES: C[C@]12CC[C@H]3[C@@H](CCC4=CC(=O)CC[C@@]43C)[C@@H]1CC[C@@H]2O [testosterone]
- change in muscle mass as expressed by FFMI (body fat and muscle mass): 1.1 (0.9) kg/meter^2
- change in percent body fat (body fat and muscle mass): −2.8 (1.7) %
- increase in body weight (body weight): 4%
- bound to protein in the blood ([1]; in vivo): 98%
- half-life ([1]; reported in the literature): 10 to 100 min
- serum free testosterone concentration (impaired sexual function; 160 μg per day (so in the source) transdermally): 3.9 ± 2.4 pg/mL
- serum free testosterone concentration (impaired sexual function; 300 μg per day transdermally): 4.9 ± 4.8 pg/mL
- percentages of women with sexual fantasies, masturbation or intercourse at least once a week, increase from base line (impaired sexual function; 300 μg per day): two to three times
- CGI-severity scores compared with placebo [2, 3]: significantly greater rates of decrease
- HAM-D scores compared with placebo [2, 3]: significantly greater rate of decrease
- BDI, Total Score: mean change from baseline to endpoint [2, 4]: −6.8
- CGI-Improvement (mean) [2, 4]: 2.9
- CGI-Severity: mean change from baseline to endpoint [2, 4]: −1.2
- HAM-D, Affective Subscale: mean change from baseline to endpoint [2, 4]: −2.7
- HAM-D, Total score: mean change from baseline to endpoint [2, 4]: −8.8
- HAM-D, Vegetative Subscale: mean change from baseline to endpoint [2, 4]: −3.5
- BDI, Total Score: mean change from baseline to endpoint [2, 5]: −5.5
- CGI-Improvement (mean) [2, 5]: 3.09
- CGI-Severity: mean change from baseline to endpoint [2, 5]: −0.9
- HAM-D, Affective Subscale: mean change from baseline to endpoint [2, 5]: −2.1
- HAM-D, Total score: mean change from baseline to endpoint [2, 5]: −7.4
- HAM-D, Vegetative Subscale: mean change from baseline to endpoint [2, 5]: −3.2

SMILES: CCCCCCC(=O)O[C@H]1CC[C@H]2[C@@H]3CCC4=CC(=O)CC[C@]4(C)[C@H]3CC[C@]12C [testosterone enanthate]
- mean HAM-D score (depression; eight weeks, 400 mg every two weeks i.m. with SSRI, 19.2 at baseline, five men): 4.0
- subjects responding (50% or greater reduction in HAM-D) (depression; randomized placebo-controlled trial, six weeks): About 40%
- HAM-D or BDI difference vs placebo (depression; randomized placebo-controlled trial, six weeks, testosterone alone): no significant difference between testosterone and placebo
